This note sets out measurements from patent publication US7998978B2 (Pfizer Inc., priority 2006, dated 2011).

Molecules are shown by their SMILES.

T1 sequence (P45983 1-364): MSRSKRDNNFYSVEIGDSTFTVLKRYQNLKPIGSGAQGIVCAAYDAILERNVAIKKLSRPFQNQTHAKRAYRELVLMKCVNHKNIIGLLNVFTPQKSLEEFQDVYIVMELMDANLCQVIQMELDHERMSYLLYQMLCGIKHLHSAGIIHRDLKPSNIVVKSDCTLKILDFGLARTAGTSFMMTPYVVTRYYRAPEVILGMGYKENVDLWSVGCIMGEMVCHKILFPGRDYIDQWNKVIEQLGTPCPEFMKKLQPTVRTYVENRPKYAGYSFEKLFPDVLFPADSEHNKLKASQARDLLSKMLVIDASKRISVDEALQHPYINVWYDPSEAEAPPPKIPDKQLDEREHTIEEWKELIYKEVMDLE

One test has as its target T1, JNK1α1 (Homo sapiens, UniProt P45983).
T1 construct: catalytic domain containing amino acids 1-364 and N-terminal hexahistidine tag; hexahistidine (His6) (N); made in house; host or cells: E. coli BL21 (DE3)
In words: Coupled spectrophotometric (PK/LDH) JNK1α1 assay: % inhibition and Ki determination. To be noted: @1 uM; read-out: % Inhibition JNK-1. It counts as biochemical. In short, it runs like this: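 Initial rates were taken from the absorbance decrease at 340 nm at 30° C. Ki was fitted with a tight-binding model over 11 concentrations (top 100 μM); single-point inhibition was tested at 1 or 10 μM.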
What is called inhibition is how much of the control response was suppressed. Regarding `O=C1NCCN1CCOc1cccc2cnc(N[C@H]3CC[C@H](O)CC3)nc12` [Example 260, 1-[2-({2-[(trans-4-hydroxycyclohexyl)amino]quinazolin-8-yl}oxy)ethyl]imidazolidin-2-one], the inhibition at 1 µM is 34%.

For `COc1ccc(COc2cccc3cnc(N[C@H]4CC[C@H](O)CC4)nc23)cc1OC` [Example 265, trans-4-({8-[(3,4-dimethoxybenzyl)oxy]quinazolin-2-yl}amino)cyclohexanol], the inhibition at 1 µM came to 47%.

As to `Cc1nnc(NC(=O)c2cccc3cnc(N[C@H]4CC[C@H](O)CC4)nc23)o1` [Example 323, 2-[(trans-4-hydroxycyclohexyl)amino]-N-(5-methyl-1,3,4-oxadiazol-2-yl)quinazoline-8-carboxamide], the inhibition at 1 µM was 42%.

Staying with this test, now noted: @10 uM; read-out: % Inhibition JNK-1.
Turning to `CC[C@@H](CO)NC(=O)c1ccc2cnc(NC3CCCC3)nc2c1` [Example 436, 2-(cyctopentylamino)-N-[(1S)-1-(hydroxymethyl)propyl]quinazoline-7-carboxamide], the inhibition at 10 µM was 85%.

Turning to `COc1ccc(F)c(CNc2cc3cc(-c4cn[nH]c4)ccc3cn2)c1` [Example 236, N-(2-fluoro-5-methoxybenzyl)-6-(1H-pyrazol-4-yl)isoquinolin-3-amine], the inhibition at 10 µM turned out to be 49%.

Staying with this test, now noted: JNK-1.
The Ki is the dissociation constant of the complex between target and ligand, obtained from inhibition or displacement. Read a low Ki as higher affinity. `CC(=O)N1CCC(NC(=O)c2ccc3cnc(N[C@H]4CC[C@H](O)CC4)nc3c2)CC1` [Example 365, N-(1-acetylpiperidin-4-yl)-2-[(trans-4-hydroxycyclohexyl)amino]quinazoline-7-carboxamide] had a Ki of 2.06 µM.

On to `O=C(Nc1cc2cc(-c3cn[nH]c3)ccc2cn1)c1ccccc1` [Example 17, N-[6-(1H-pyrazol-4-yl)isoquinolin-3-yl]benzamide], for which the Ki was above 0.03 µM.

Consider `O=C(c1ccc2cnc(N[C@H]3CC[C@H](O)CC3)nc2c1)N1CCC[C@H]1CO` [Example 85, trans-4-[(7-{[(2S)-2-(hydroxymethyl)pyrrolidin-1-yl]carbonyl}quinazolin-2-yl)amino]cyclohexanol], for which the Ki was determined as 3.01 µM.

For the molecule `Cc1ccc2cnc(N[C@H]3CC[C@H](O)CC3)nc2c1OCC(=O)N1CCS(=O)(=O)CC1` [Example 214, trans-4-({8-[2-(1,1-dioxidothiomorpholin-4-yl)-2-oxoethoxyl]-7-methylquinazolin-2-yl}amino) cyclohexanol], the affinity, expressed as Ki, was 1.3 µM.

`COC(C)(C)CCOc1cccc2cnc(N[C@H]3CC[C@H](O)CC3)nc12` [Example 241, trans-4-{[8-(3-methoxy-3-methylbutoxy)quinazolin-2-yl]amino}cyclohexanol]: affinity was put at a Ki of 0.098 µM.

In turn, `CN(C)CCOc1ccc(-c2cccc3cnc(N[C@H]4CC[C@H](O)CC4)nc23)cc1` [Example 201, trans-4-[(8-{4-[2-(dimethylamino)ethoxy]phenyl}quinazolin-2-yl)amino]cyclohexanol] showed a Ki of 0.07 µM.

In turn, `CC(C)NC(=O)c1ccc2cnc(N[C@H]3CC[C@H](O)CC3)nc2c1` [Example 83, 2-[(trans-4-hydroxycyclohexyl)amino]-N-isopropylquinazoline-7-carboxamide] returned an inhibition constant (Ki) of 0.247 µM.

Take `O=C(NC1(c2cccnc2)CC1)c1cccc2cnc(N[C@H]3CC[C@H](O)CC3)nc12` [Example 464, 2-[(trans-4-hydroxycyclohexyl)amino]-N-(1-pyridin-3-ylcyclopropyl)quinazoline-8-carboxamide]: affinity was put at a Ki of 0.685 µM.

For `CC(C)NC(=O)c1cccc2cnc(N[C@H]3CC[C@H](O)CC3)nc12` [Example 103, 2-[(trans-4-hydroxycyclohexyl)amino]-N-isopropylquinazoline-8-carboxamide], the inhibition constant Ki stood at 0.176 µM.

Molecule `CC(C)Nc1ncc2ccc(C(=O)NC(CO)c3ccccc3)cc2n1` (stereo not drawn) [Example 385, N-(2-hydroxy-1-phenylethyl)-2-(isopropylamino)quinazoline-7-carboxamide] displayed an inhibition constant Ki of 0.263 µM.
